# In patent US20150119373A1, “NOVEL BETULINIC ACID DERIVATIVES AS HIV INHIBITORS” (HETERO RESEARCH FOUNDATION, priority 2012, published 2015):
# Like-named read-outs stand apart in the source and are kept apart here.
# Tests used:
# [1] = Cyto-toxicity assay (MTT) in MT2 cells without virus; assay type: cell-based; details: human
# Procedure: For cyto-toxicity assay the same amount of MT2 cells as in antiviral assay without virus was added to the 96 well plates. The cyto-toxicity was measured using MTT reagent in parallel with p24 estimation. The percent viability is calculated in comparison with vehicle control.
# HIV-1 strain 92HT599 = assay: Antiviral activity: p24 estimation in MT2 cells infected with HIV-1 strain 92HT599; assay type: cell-based; details: for inhibition at 0.1 µM: read-out: Antiviral activity % inhibition 100 nM; for inhibition at 1 µM: read-out: Antiviral activity % inhibition 1000 nM
# Procedure: MT2 cells were infected with HIV-1 strain 92HT599 (10 TCID 50/30000 cells). The infected cells were plated at the concentration of […] cells per well in 96 well plate. Test compound was added to the micro plate in defined format with the final concentration of DMSO (vehicle) is not more than 1%. Incubation was carried out in CO2 incubator for ˜96 hours for viral infection. At the end of incubation period an aliquot from each well was taken for p24 estimation. The quantitation of p24 is an index for antiviral activity of the compound. Percent inhibition was calculated with reference to control values (vehicle controls).
# p-24 estimation was carried out using Advance biosciences kit as per the procedure detailed by supplier.
# [2] = Human immunodeficiency virus 1, 100 nM, MT2 cells, HIV-1 92HT599, ~96 hours, p24
# [3] = Human immunodeficiency virus 1, 1000 nM, MT2 cells, HIV-1 92HT599, ~96 hours, p24
# [4] = Human immunodeficiency virus 1, MT2, 96 h
Compound,viability at 100 nM [1],viability at 1000 nM [1],inhibition at 0.1 µM (HIV-1 strain 92HT599; [2]),inhibition at 1 µM (HIV-1 strain 92HT599; [3]),"viability at 100 nM ([1]; 100 nM, MT2 cells, MTT, read-out: Cytotoxicity % viability 100 nM)","viability at 1000 nM ([1]; 1000 nM, MT2 cells, MTT, read-out: Cytotoxicity % viability 1000 nM)",inhibition at 0.1 µM (HIV-1 strain 92HT599; [4]),inhibition at 1 µM (HIV-1 strain 92HT599; [4])
"COCCOCCOC1CCN(C(=O)[C@]23CC[C@@H](C4(C)CC4)[C@@H]2[C@H]2CC[C@@H]4[C@@]5(C)CC[C@H](OC(=O)CC(C)(C)C(=O)O)C(C)(C)[C@@H]5CC[C@@]4(C)[C@]2(C)CC3)CC1 [Example 43, 4-(((1R,3aS,5aR,5bR,7aR,9S,11aR,11bR,13aR,13bR)-3a-(4-(2-(2-methoxyethoxyl)ethoxy)piperidine-1-carbonyl)-5a,5b,8,8,11a-pentamethyl-1-(1-methylcyclopropyl)icosahydro-1H-cyclopenta[a]chrysen-9-yl)oxy)-2,2-dimethyl-4-oxobutanoic acid]",100%,100%,99%,99%,–,–,–,–
"C=C(C)[C@@H]1CC[C@]2(C(=O)N3CCCCC3)CC[C@]3(C)[C@H](CC[C@@H]4[C@@]5(C)CC[C@H](OC(=O)[C@H]6[C@@H](CC(=O)O)C6(C)C)C(C)(C)[C@@H]5CC[C@]43C)[C@@H]12 [Compound 2, 2-((1R,3S)-2,2-dimethyl-3-(((1R,3aS,5aR,5bR,7aR,9S,11aR,11bR,13aR,13bR)-5a,5b,8,8,11a-pentamethyl-3a-(piperidine-1-carbonyl)-1-(prop-1-en-2-yl)icosahydro-1H-cyclopenta[a]chrysen-9-yloxy)carbonyl)cyclopropyl)acetic acid]",96%,95%,77%,98%,–,–,–,–
"CC1([C@@H]2CC[C@]3(C(=O)N4CCC(OCCN5CCOCC5)CC4)CC[C@]4(C)[C@H](CC[C@@H]5[C@@]6(C)CC[C@H](OC(=O)[C@H]7C[C@@H](C(=O)O)C7(C)C)C(C)(C)[C@@H]6CC[C@]54C)[C@@H]23)CC1 [Example 48, (1R,3S)-2,2-dimethyl-3-((((1R,3aS,5aR,5bR,7aR,9S,11aR,11bR,13aR,13bR)-5a,5b,8,8,11a-pentamethyl-1-(1-methylcyclopropyl)-3a-(4-(2-morpholinoethoxyl)piperidine-1-carbonyl)icosahydro-1H-cyclopenta[a]chrysen-9-yl)oxy)carbonyl)cyclobutane-1-carboxylic acid]",100%,100%,97%,99%,–,–,–,–
CC(C)(C)OC(=O)N1CCN(C(=O)[C@]23CC[C@@H](C4(C)CC4)[C@@H]2[C@H]2CC[C@@H]4[C@@]5(C)CC[C@H](OC(=O)CC(C)(C)C(=O)O)C(C)(C)[C@@H]5CC[C@@]4(C)[C@]2(C)CC3)CC1 [Example 37],73%,72%,30%,99%,–,–,–,–
"C=C(C)[C@@H]1CC[C@]2(c3nnc(-c4ccccc4)o3)CC[C@]3(C)[C@H](CC[C@@H]4[C@@]5(C)CC[C@H](OC(=O)[C@H]6[C@@H](CC(=O)O)C6(C)C)C(C)(C)[C@@H]5CC[C@]43C)[C@@H]12 [Example 5, 2-((1R,3S)-2,2-dimethyl-3-(((1R,3aS,5aR,5bR,7aR,9S,11aR,11bR,13aR,13bR)-5a,5b,8,8,11a-pentamethyl-3a-(5-phenyl-1,3,4-oxadiazol-2-yl)-1-(prop-1-en-2-yl)icosa hydro-1H-cyclopenta[a]chrysen-9-yloxy)carbonyl)cyclopropyl)acetic acid]",95%,98%,49%,92%,–,–,–,–
"CC(C)(CC(=O)O[C@H]1CC[C@]2(C)[C@H]3CC[C@@H]4[C@H]5[C@H](C6(C)CC6)CC[C@]5(C(=O)N5CCC(OCCN6CCOCC6)CC5)CC[C@@]4(C)[C@]3(C)CC[C@H]2C1(C)C)C(=O)O [Example 47, 2,2-dimethyl-4-oxo-4-(((1R,3aS,5aR,5bR,7aR,9S,11aR,11bR,13aR,13bR)-5a,5b,8,8,11a-pentamethyl-1-(1-methylcyclopropyl)-3a-(4-(2-morpholinoethoxyl)piperidine-1-carbonyl)icosahydro-1H-cyclopenta[a]chrysen-9-yl)oxy)butanoic acid]",100%,96%,100%,99%,–,–,–,–
"C=C(C)[C@@H]1CC[C@]2(C(=O)N[C@@H]3C[C@H](c4nnc(CC(C)C)o4)C3(C)C)CC[C@]3(C)[C@H](CC[C@@H]4[C@@]5(C)CC[C@H](OC(=O)CC(C)(C)C(=O)O)C(C)(C)[C@@H]5CC[C@]43C)[C@@H]12 [Example 16, 4-((1R,3aS,5aR,5bR,7aR,9S,11aR,11bR,13aR,13bR)-3a-((1R,3S)-3-(5-isobutyl-1,3,4-oxadiazol-2-yl)-2,2-dimethylcyclobutylcarbamoyl)-5a,5b,8,8,11a-pentamethyl-1-(prop-1-en-2-yl)icosahydro-1H-cyclopenta[a]chrysen-9-yloxy)-2,2-dimethyl-4-oxobutanoic acid]",81%,79%,100%,100%,–,–,–,–
"[2H]C([2H])([2H])C(N1CCN(C(=O)[C@]23CC[C@@H](C(=C)C)[C@@H]2[C@H]2CC[C@@H]4[C@@]5(C)CC[C@H](OC(=O)CC(C)(C)C(=O)O)C(C)(C)[C@@H]5CC[C@@]4(C)[C@]2(C)CC3)CC1)C([2H])([2H])[2H] [Example 7, 4-((1R,3aS,5aR,5bR,7aR,9S,11aR,11bR,13aR,13bR)-3a-(4-(1-methylethyl-2,2,2,1′,1′,1′-D6)piperazine-1-carbonyl)-5a,5b,8,8,11a-pentamethyl-1-(prop-1-en-2-yl)icosahydro-1H-cyclopenta[a]chrysen-9-yloxy)-2,2-dimethyl-4-oxobutanoic acid]",–,–,–,–,99%,96%,98%,97%
"C=C(C)[C@@H]1CC[C@]2(C(=O)N[C@@H]3C[C@H](C(=O)N4CCCCC4)C3(C)C)CC[C@]3(C)[C@H](CC[C@@H]4[C@@]5(C)CC[C@H](OC(=O)CC(C)(C)C(=O)OCOC)C(C)(C)[C@@H]5CC[C@]43C)[C@@H]12 [Example 9, 4-(1R,3aS,5aR,5bR,7aR,9S,11aR,11bR,13aR,13bR)-3a-((1R,3S)-2,2-dimethyl-3-(piperidine-1-carbonyl)cyclobutylcarbamoyl)-5a,5b,8,8,11a-pentamethyl-1-(prop-1-en-2-yl)icosahydro-1H-cyclopenta[a]chrysen-9-yl 1-methoxymethyl 2,2-dimethylsuccinate]",82%,88%,64%,99%,–,–,–,–
"CC(C)(CC(=O)O[C@H]1CC[C@]2(C)[C@H]3CC[C@@H]4C5[C@H](C6(C)CC6)CC[C@]5(C(=O)N[C@H]5C[C@@H](C(=O)N6CCOCC6)C5(C)C)CC[C@@]4(C)[C@]3(C)CC[C@H]2C1(C)C)C(=O)O (stereo partly drawn) [Example 51, 4-(((1R,3aS,5aR,5bR,7aR,9S,11aR,11bR,13aR)-3a-(((1S,3R)-2,2-dimethyl-3-(morpholine-4-carbonyl)cyclobutyl)carbamoyl)-5a,5b,8,8,11a-pentamethyl-1-(1-methylcyclopropyl)icosahydro-1H-cyclopenta[a]chrysen-9-yl)oxy)-2,2-dimethyl-4-oxobutanoic acid]",85%,83%,100%,100%,–,–,–,–
